Measurements reported in US11174242B2, “Heteroaryl compounds and their use” (Minoryx Therapeutics S.L., priority 2016, dated 2021).
Changes are numbered by the printed parent chain.

Assays:
[1] = target: T1, β-glucocerebrosidase, p.L444P mutation (GM08760A fibroblasts) (Homo sapiens, UniProt P04062, L483P); assay: Enhancement of β-glucocerebrosidase activity measured in Gaucher disease fibroblasts (L444P); assay type: cell-based; conditions: increase in enzyme activity vs non-treated cells, GBA fibroblasts bearing L444P
T1 construct: host or cells: human Gaucher patient fibroblasts GM08760A, homozygous L444P
T1 sequence (P04062 40-536 L483P): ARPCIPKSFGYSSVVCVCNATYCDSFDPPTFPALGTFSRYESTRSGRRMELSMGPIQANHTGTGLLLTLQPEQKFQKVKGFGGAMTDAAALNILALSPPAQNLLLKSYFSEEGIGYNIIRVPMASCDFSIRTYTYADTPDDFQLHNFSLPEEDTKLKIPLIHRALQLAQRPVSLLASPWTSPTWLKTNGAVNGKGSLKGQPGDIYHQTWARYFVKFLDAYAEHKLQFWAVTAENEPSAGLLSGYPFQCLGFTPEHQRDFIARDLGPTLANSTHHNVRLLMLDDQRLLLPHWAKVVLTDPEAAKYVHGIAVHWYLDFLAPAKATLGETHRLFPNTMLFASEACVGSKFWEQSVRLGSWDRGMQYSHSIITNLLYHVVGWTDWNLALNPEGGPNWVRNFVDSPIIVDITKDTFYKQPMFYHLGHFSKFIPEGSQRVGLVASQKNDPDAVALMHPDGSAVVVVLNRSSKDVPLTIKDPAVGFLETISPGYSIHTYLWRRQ
Protocol: Enhancement of β-Glucocerebrosidase Activity Measured in Gaucher Disease Fibroblasts Materials
Human fibroblasts from a patient with Gaucher disease homozygous for p.L444P mutation (GM08760A) were purchased from Coriell Institute for Medical Research (Camden, N.J., USA).
(§1) Fibroblasts were seeded at 5×10^3 cells per well in 96-well cell culture plates (Corning, N.Y., USA) in Dulbecco's Modified Eagle's Media (DMEM) supplemented with 10% of fetal bovine serum (FBS), 1% penicillin/streptomycin (P/S) (Thermo Fisher Scientific, Waltham, Mass., USA) and grown at 37° C., 5% CO2 overnight for cell attachment. Subsequently, cells were incubated in the absence or presence of the compounds at the desired concentration for 4 days. After incubation, cells were washed twice with phosphate-buffered saline (PBS) and enzyme activity assay was performed.
(§2) β-glucocerebrosidase activity in intact cultured cells was measured by using 4-methylumbelliferyl-β-D-glucopyranoside substrate (Apollo Scientific, UK). Briefly, cells were incubated with 4-MU-β-D-glucopyranoside in 0.1 M acetate buffer pH=4 at 37° C. for 1 hour. […] The liberated 4-MU was measured on a GloMax Discover plate reader (Promega, Madison, Wis., USA) with and excitation at 340 nm and emission at 460 nm. Enzyme activities were expressed in treated cells as X-fold increase in comparison with non-treated cells (X=1 represents no enhancement).
The capacity of the compounds of the disclosure to produce an increase in enzyme activity in GBA fibroblasts bearing L444P at concentrations between 6 and 50 μM is denoted as follows:
(§3) The following compounds listed in Table 2 were purchased (from Enamine, Princeton, Asinex, Vistas-M, and OSSK_541352) and tested in the assay as described above.

[2] = target: T2, β-glucocerebrosidase Wild Type (WT) (Homo sapiens, UniProt P04062); assay: β-glucocerebrosidase activity enhancement, Wild Type (WT); assay type: cell-based; conditions: increase in enzyme activity vs non-treated cells; for Activity WT: commercially available compounds
T2 construct: endogenous in cells
T2 sequence (P04062 40-536): T1 sequence (P04062 40-536 L483P) with P444L
Protocol: as §1, §2, §3

[3] = commercially available compounds, 6-50 μM, 4 days
[4] = concentrations between 6 and 50 μM, 4 days incubation

SMILES	Activity L444P [1, 3]	Activity WT [2]	Activity Wild Type (WT) [2]	Activity L444P [1, 4]
CCN(Cc1ccccc1)C(C)c1nc(N)nc(Nc2ccccc2)n1 (centres unmarked) [6-(1-(benzyl(ethyl)amino)ethyl)-N2-phenyl-1,3,5-triazine-2,4-diamine]	B (Increase in comparison with non-treated of >1.7-2.0 fold is shown as B)	B (Increase in comparison with non-treated of >1.7-2.0 fold is shown as B)	–	–
Cc1ccc(Nc2nc(N)nc(CN3CCc4ccccc4C3)n2)cc1 [6-((3,4-dihydroisoquinolin-2(1H)-yl)methyl)-N2-(p-tolyl)-1,3,5-triazine-2,4-diamine]	B (Increase in comparison with non-treated of >1.7-2.0 fold is shown as B)	B (Increase in comparison with non-treated of >1.7-2.0 fold is shown as B)	–	–
Cc1ccc(Nc2nc(N)nc(CN3CCCc4ccccc43)n2)cc1 [6-((3,4-dihydroquinolin-1(2H)-yl)methyl)-N2-(p-tolyl)-1,3,5-triazine-2,4-diamine]	C (Increase in comparison with non-treated of 1.2-1.7 fold is shown as C)	C (Increase in comparison with non-treated of 1.2-1.7 fold is shown as C)	–	–
Nc1nc(CN2CCN(c3cccc(Cl)c3)CC2)nc(Nc2ccc3c(c2)OCCO3)n1 [6-((4-(3-chlorophenyl)piperazin-1-yl)methyl)-N2-(2,3-dihydrobenzo[b][1,4]dioxin-6-yl)-1,3,5-triazine-2,4-diamine]	B (Increase in comparison with non-treated of >1.7-2.0 fold is shown as B)	C (Increase in comparison with non-treated of 1.2-1.7 fold is shown as C)	–	–
Cc1ccc(Nc2nc(N)nc(CN3CCN(Cc4ccc5c(c4)OCO5)CC3)n2)cc1 [6-((4-(benzo[d][1,3]dioxo1-5-ylmethyl)piperazin-1-yl)methyl)-N2-(p-tolyl)-1,3,5-triazine-2,4-diamine]	C (Increase in comparison with non-treated of 1.2-1.7 fold is shown as C)	B (Increase in comparison with non-treated of >1.7-2.0 fold is shown as B)	–	–
CN(Cc1ccccc1)Cc1cc(Nc2ccc3cnccc3c2)nc(N)n1 [Example 31, 6-((Benzyl(methyl)amino)methyl)-N^4-(isoquinolin-6-yl)pyrimidine-2,4-diamine]	–	–	A (Increase in comparison with non-treated of >2.0 fold is shown as A)	–
COc1ccccc1Nc1cc(N)nc(CN(C)Cc2ccccc2)n1 [Example 63, 2-((Benzyl(methyl)amino)methyl)-N^4-(2-methoxyphenyl)pyrimidine-4,6-diamine]	–	–	–	C (Increase in comparison with non-treated of 1.2-1.7 fold is shown as C)
COc1ccc(Nc2cc(N)nc(CN(C)Cc3ccccc3)n2)cc1 [Example 66, 2-((Benzyl(methyl)amino)methyl)-N^4-(4-methoxyphenyl)pyrimidine-4,6-diamine]	–	–	–	B (Increase in comparison with non-treated of >1.7-2.0 fold is shown as B)
COc1ccccc1Nc1nc(N)cc(CN2CCc3ccccc3C2)n1 [Example 71, (6-((3,4-Dihydroisoquinolin-2(1H)-yl)methyl)-N-(2-methoxyphenyl)pyrimidine-2,4-diamine)]	–	–	–	C (Increase in comparison with non-treated of 1.2-1.7 fold is shown as C)
COc1ccccc1Nc1nc(N)nc(CN(C)Cc2ccc3ccccc3c2)n1 [N2-(2-methoxyphenyl)-6-((methyl(naphthalen-2-ylmethyl)amino)methyl)-1,3,5-triazine-2,4-diamine]	B (Increase in comparison with non-treated of >1.7-2.0 fold is shown as B)	–	–	–
CN(Cc1cccc(F)c1)Cc1nc(N)nc(Nc2ccc(Cl)cc2)n1 [N2-(4-chlorophenyl)-6-(((3-fluorobenzyl)(methyl)amino)methyl)-1,3,5-triazine-2,4-diamine]	C (Increase in comparison with non-treated of 1.2-1.7 fold is shown as C)	–	–	–
Nc1nc(CN2CCCC2c2ccccc2)nc(Nc2ccc(F)cc2)n1 (centres unmarked) [N2-(4-fluorophenyl)-6-((2-phenylpyrrolidin-1-yl)methyl)-1,3,5-triazine-2,4-diamine]	B (Increase in comparison with non-treated of >1.7-2.0 fold is shown as B)	–	–	–
